These molecules were tested against LRRK2 Ser935 phosphorylation in SH-SY5Y cells over-expressing recombinant full length LRRK2 (Homo sapiens (Human), UniProt Q5S007) (assay: Recombinant cellular LRRK2 AlphaScreen assay). Conditions: 60 minutes, read-out: Recombinant cellular LRRK2 alphaScreen assay (pIC50) (converted).
Sequence of LRRK2 Ser935 phosphorylation in SH-SY5Y cells over-expressing recombinant full length LRRK2 (Q5S007 whole entry): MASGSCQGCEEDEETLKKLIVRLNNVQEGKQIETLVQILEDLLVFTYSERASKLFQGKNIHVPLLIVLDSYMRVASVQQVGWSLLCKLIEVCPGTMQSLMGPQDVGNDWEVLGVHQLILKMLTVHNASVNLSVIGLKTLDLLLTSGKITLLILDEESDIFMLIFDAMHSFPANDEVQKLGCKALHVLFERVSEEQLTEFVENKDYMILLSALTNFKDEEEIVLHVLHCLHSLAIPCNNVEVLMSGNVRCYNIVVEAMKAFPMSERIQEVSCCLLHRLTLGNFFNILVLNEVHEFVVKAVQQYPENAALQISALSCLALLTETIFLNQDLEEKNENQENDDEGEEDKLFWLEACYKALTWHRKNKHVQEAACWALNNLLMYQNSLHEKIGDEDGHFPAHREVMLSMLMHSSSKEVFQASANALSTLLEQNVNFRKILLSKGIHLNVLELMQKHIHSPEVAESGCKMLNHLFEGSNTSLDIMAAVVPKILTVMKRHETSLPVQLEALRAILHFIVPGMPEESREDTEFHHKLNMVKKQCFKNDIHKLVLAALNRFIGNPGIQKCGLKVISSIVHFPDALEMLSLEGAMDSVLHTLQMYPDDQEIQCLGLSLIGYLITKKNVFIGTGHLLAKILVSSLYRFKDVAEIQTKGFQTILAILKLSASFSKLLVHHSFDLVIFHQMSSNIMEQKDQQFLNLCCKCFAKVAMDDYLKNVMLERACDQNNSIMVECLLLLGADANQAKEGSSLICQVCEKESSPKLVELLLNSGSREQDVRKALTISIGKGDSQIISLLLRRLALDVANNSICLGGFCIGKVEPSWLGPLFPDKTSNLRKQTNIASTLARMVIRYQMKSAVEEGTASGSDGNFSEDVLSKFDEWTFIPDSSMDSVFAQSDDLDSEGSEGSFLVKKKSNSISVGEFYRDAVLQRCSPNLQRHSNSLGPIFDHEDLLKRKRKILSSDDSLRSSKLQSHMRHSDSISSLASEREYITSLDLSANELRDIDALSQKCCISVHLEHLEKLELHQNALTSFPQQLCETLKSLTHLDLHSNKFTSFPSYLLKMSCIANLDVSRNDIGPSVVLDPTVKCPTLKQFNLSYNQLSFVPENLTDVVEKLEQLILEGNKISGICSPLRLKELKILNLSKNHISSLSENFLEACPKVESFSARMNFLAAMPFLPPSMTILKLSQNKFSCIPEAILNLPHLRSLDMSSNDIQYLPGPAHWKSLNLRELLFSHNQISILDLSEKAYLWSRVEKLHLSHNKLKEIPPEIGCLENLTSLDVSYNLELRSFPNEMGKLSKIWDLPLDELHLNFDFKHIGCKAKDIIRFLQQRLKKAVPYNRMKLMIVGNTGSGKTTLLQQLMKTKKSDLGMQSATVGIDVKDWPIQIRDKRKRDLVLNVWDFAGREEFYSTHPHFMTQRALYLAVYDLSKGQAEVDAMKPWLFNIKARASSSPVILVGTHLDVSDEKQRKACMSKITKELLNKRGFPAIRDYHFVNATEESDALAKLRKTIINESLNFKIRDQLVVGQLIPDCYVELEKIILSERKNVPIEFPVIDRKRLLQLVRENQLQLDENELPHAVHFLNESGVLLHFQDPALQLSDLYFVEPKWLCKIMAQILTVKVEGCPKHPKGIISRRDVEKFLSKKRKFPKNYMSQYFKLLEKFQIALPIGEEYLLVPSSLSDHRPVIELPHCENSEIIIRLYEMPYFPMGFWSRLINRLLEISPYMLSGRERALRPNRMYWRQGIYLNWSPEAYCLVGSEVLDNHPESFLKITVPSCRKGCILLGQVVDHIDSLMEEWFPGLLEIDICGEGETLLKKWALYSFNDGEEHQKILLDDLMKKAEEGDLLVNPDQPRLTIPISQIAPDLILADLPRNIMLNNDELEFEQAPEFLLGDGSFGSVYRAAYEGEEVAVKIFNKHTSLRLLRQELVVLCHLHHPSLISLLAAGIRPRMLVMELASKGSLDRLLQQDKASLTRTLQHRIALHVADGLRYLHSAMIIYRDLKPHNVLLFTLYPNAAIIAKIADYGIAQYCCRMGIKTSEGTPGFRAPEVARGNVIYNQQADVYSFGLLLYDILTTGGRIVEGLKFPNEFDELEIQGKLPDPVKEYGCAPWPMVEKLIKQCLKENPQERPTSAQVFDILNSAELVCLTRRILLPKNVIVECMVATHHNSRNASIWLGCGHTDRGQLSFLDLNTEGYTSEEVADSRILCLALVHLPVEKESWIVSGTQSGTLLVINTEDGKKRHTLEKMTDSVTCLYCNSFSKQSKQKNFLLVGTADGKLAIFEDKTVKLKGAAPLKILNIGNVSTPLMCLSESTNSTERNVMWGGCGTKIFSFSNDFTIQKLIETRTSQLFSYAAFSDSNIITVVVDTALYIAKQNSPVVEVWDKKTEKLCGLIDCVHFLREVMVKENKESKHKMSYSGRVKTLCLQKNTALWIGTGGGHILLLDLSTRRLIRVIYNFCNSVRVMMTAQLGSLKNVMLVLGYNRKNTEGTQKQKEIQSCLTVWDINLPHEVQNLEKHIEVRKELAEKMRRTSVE
Type: cell-based
Excerpt: To determine the activity of compounds against LRRK2 kinase activity in cells, the observed LRRK2 kinase-dependent modulation of LRRK2 Ser 935 phosphorylation (Dzamko et al., 2010, Biochem. J. 430: 405-413) was utilized to develop a quantitative 384 well plate-based immunoassay of LRRK2 Ser935 phosphorylation in the human neuroblastoma cell line SH-SY5Y, engineered to over-express recombinant full length LRRK2 protein.
A BacMam virus expressing full length recombinant LRRK2 was purchased from Invitrogen and amplified by inoculation of SF-9 cells at MOI 0.3 for 4-5 days in Sf-900 III SFM medium supplemented with 3% fetal bovine serum. Infected cell cultures were then centrifuged at 2000 g for 20 minutes, viral supernatant titer determined by anti-gp64 plaque assay and stored at 4° C.
Affinity-purified anti-phospho LRRK2 Ser935 sheep polyclonal antibody (Dzamko et al., 2010, Biochem. J. 430: 405-413) was biotinylated by standard methods (PerkinElmer). Anti-LRRK2 rabbit polyclonal antibody was purchased from Novus Biologicals. AlphaScreen Protein A IgG Kit (including acceptor and donor beads) was purchased from Perkin Elmer.
SH-SY5Y cells were grown in DMEM/F12 medium with 10% dialysed fetal bovine serum and harvested by treatment with 0.5% trypsin-EDTA for 5 minutes at 37° C. followed by centrifugation at 1000 rpm for 4 minutes. The cell pellet was resuspended in Opti-MEM reduced serum media (Invitrogen) at 200,000 cells/ml and mixed with the BacMam LRRK2 virus at M01=50. 50 μl cell solutions were then dispensed to each well of a 384-well plate and incubated at 37° C., 5% CO2 for 24 hours.
Serial dilutions of test compounds were prepared in Opti-MEM reduced serum media (Invitrogen) and 5.6 ul transferred from compound plate to cell assay plate to achieve a top final assay concentration of 10 uM. DMSO was used in certain wells as controls. Cells were incubated at 37° C., 5% CO2 for 60 minutes. The medium was then removed and cells lysed by addition of 20 ul cell lysis buffer (Cell Signaling Technology) and incubation at 4° C. for 20 minutes. 10 ul of antibody/acceptor bead mix [( 1/1000 biotinylated-pS935 LRRK2 antibody, 1/1000 total-LRRK2 antibody, 1/100 Acceptor beads in AlphaScreen detection buffer (25 mM Hepes (pH 7.4), 0.5% Triton X-100, 1 mg/ml Dextran 500 and 0.1% BSA)] was then added to each well and plates incubated for 2 hours at ambient temperature in the dark. 10 μl of donor beads solution (1/33.3 donor beads in AlphaScreen detection buffer) was then added to each well. Following incubation for a further 2 hours at ambient temperature in the dark, plates were read on an EnVision™ plate reader at emission 520-620 nm with excitation 680 nm. Dose response curve data was based on sigmoidal dose-response model.
COCCN1CCC(c2ncc3cnn(-c4ccnc(N5CCOCC5)c4)c3n2)C(F)C1 (single isomer, unassigned) [Example E76, (cis)-4-(4-(6-(3-Fluoro-1-(2-methoxyethyl)piperidin-4-yl)-1H-pyrazolo[3,4-d]pyrimidin-1-yl)pyridin-2-yl)morpholine] showed an IC50 greater than 10 µM.
CCOc1nc(N2CCOCC2)cc(-n2ncc3cc(C)c(C4CCN(C5COC5)CC4(F)F)cc32)n1 (single isomer, unassigned) [Example E24, 4-(6-(6-(3,3-Difluoro-1-(oxetan-3-yl)piperidin-4-yl)-5-methyl-1H-indazol-1-yl)-2-ethoxypyrimidin-4-yl)morpholine] gave an IC50 of no more than 0.1 µM.
In the case of Cc1nc(N2CCO[C@H](CO)C2)cc(-n2ncc3cc(C)c(C4CCCCO4)cc32)n1 (single isomer, unassigned) [Example E271], the IC50 is reported as greater than 10 µM.
COc1nc(N2CC(O)C(F)C2)cc(-n2ncc3cc(C)c(C4CCN(C5COC5)CC4)cc32)n1 (single isomer, unassigned) [Example E219, (trans)-4-Fluoro-1-(2-methoxy-6-(5-methyl-6-(1-(oxetan-3-yl)piperidin-4-yl)-1H-indazol-1-yl)pyrimidin-4-yl)pyrrolidin-3-ol] showed an IC50 of no more than 0.1 µM.
For Cc1nc(N2CC(O)C2)cc(-n2ncc3cc(C)c(C4CCCOC4)cc32)n1 (single isomer, unassigned) [Example E272, 1-(2-Methyl-6-(5-methyl-6-(tetrahydro-2H-pyran-3-yl)-1H-indazol-1-yl)pyrimidin-4-yl)azetidin-3-ol], the IC50 was greater than 10 µM.
In the case of Cc1cc2cnn(-c3cc(N4CC(O)C4)nc(C4CC4)n3)c2cc1[C@H]1CCN(C)C[C@H]1F (single isomer, unassigned) [Example E46, (cis)-1-(2-Cyclopropyl-6-(6-(3-fluoro-1-methylpiperidin-4-yl)-5-methyl-1H-indazol-1-yl)pyrimidin-4-yl)azetidin-3-ol], the IC50 is reported as no more than 0.1 µM.
CCc1nc(N2CCOCC2)cc(-n2ncc3cc(C)c(C4CCN(C)CC4(F)F)cc32)n1 (single isomer, unassigned) [Example E11, 4-(6-(6-(3,3-Difluoro-1-methylpiperidin-4-yl)-5-methyl-1H-indazol-1-yl)-2-ethylpyrimidin-4-yl)morpholine] gave an IC50 greater than 10 µM.
Molecule COc1nc(N2CC(OCCO)C2)cc(-n2ncc3cc(C)c(C4CCOCC4)cc32)n1 [Example E237, 2-((1-(2-Methoxy-6-(5-methyl-6-(tetrahydro-2H-pyran-4-yl)-1H-indazol-1-yl)pyrimidin-4-yl)azetidin-3-yl)oxy)ethanol] has an IC50 of no more than 0.1 µM.
Cc1cc2cnn(-c3cc(N4CCOCC4)nc(OC(C)C)n3)c2cc1C1CCN(C)CC1(F)F (single isomer, unassigned) [Example E7, 4-(6-(6-(3,3-Difluoro-1-methylpiperidin-4-yl)-5-methyl-1H-indazol-1-yl)-2-isopropoxypyrimidin-4-yl)morpholine] showed an IC50 greater than 10 µM.
With Cc1nc(N2CCO[C@@H](CO)C2)cc(-n2ncc3cc(C)c(C4CCCCO4)cc32)n1 (single isomer, unassigned) [Example E245] the IC50 was greater than 10 µM.
Cc1nc(N2CC(O)C2)cc(-n2ncc3cc(Cl)c(N4CCC(O)CC4)cc32)n1 [Example E258, 1-(5-Chloro-1-(6-(3-hydroxyazetidin-1-yl)-2-methylpyrimidin-4-yl)-1H-indazol-6-yl)piperidin-4-ol] gave an IC50 of no more than 0.1 µM.
Cc1nc(N2CCO[C@@H](CO)C2)cc(-n2ncc3cc(C)c(C4CCCOC4)cc32)n1 (single isomer, unassigned) [Example E240] gave an IC50 greater than 10 µM.
For Cc1nc(N2CC(O)C2)cc(-n2ncc3cc(C)c(C4CCOCC4F)cc32)n1 (single isomer, unassigned) [Example E246, 1-(6-(6-(3-Fluorotetrahydro-2H-pyran-4-yl)-5-methyl-1H-indazol-1-yl)-2-methylpyrimidin-4-yl)azetidin-3-ol], the IC50 was no more than 0.1 µM.

Source: patent US10975081B2, “Substituted fused pyrazole compounds and their use as LRRK2 inhibitors” (GlaxoSmithKline Intellectual Property Development Limited, priority 2015, dated 2021)
